# Results: patent US11117900B2 (Vertex Pharmaceuticals Incorporated, priority 2012, dated 2021)
# Test system: HCT116 colorectal cancer cells
# Assay: Cisplatin sensitization assay (96 h MTS cell viability);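 note: compound concentration needed to lower the IC50 of Cisplatin alone by a set fold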
# Format: cell-based
# Conditions: Cisplatin sensitization value
# Procedure, shortened: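 The MTS viability read, after 1 h with reagent, followed 96 h of co-treatment at 37° C. in 5% CO2. Both compound and cisplatin were titrated 2-fold from a 10 μM top final concentration in a complete concentration matrix on HCT116 cells. Scores +++/++/+ reflect cisplatin sensitization value ranges.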
row,SMILES,Cisplatin Sensitization Assay
1,"CC1(S(C)(=O)=O)CCN(c2ccncc2NC(=O)c2c(N)nn3cc(F)cnc23)CC1 [I-N-243, 2-amino-6-fluoro-N-(4-(4-methyl-4-(methylsulfonyl)piperidin-1-yl)pyridin-3-yl)pyrazolo[1,5-a]pyrimidine-3-carboxamide]",+++ (Compounds with a Cisplatin sensitization value of <0.02 μM are marked with “+++.”)
2,"Nc1nn2cc(F)cnc2c1C(=O)Nc1cnccc1N1CCN2C(=O)CCCC2C1 (stereo not drawn) [I-N-244, 2-amino-6-fluoro-N-(4-(6-oxohexahydro-1H-pyrido[1,2-a]pyrazin-2(6H)-yl)pyridin-3-yl)pyrazolo[1,5-a]pyrimidine-3-carboxamide]",+++ (Compounds with a Cisplatin sensitization value of <0.02 μM are marked with “+++.”)
3,"CC(C)N1CCN2CCN(c3ccncc3NC(=O)c3c(N)nn4cc(F)cnc34)CC2C1=O (stereo not drawn) [I-N-245, 2-amino-6-fluoro-N-(4-(8-isopropyl-9-oxohexahydro-1H-pyrazino[1,2-a]pyrazin-2(6H)-yl)pyridin-3-yl)pyrazolo[1,5-a]pyrimidine-3-carboxamide]",++ (Compounds with a Cisplatin sensitization value >0.02 μM but <0.2 μM are marked with “++.”)
4,"Nc1nn2cc(F)cnc2c1C(=O)Nc1cncc(F)c1N1CCCC1 [I-N-246, 2-amino-6-fluoro-N-(5-fluoro-4-(pyrrolidin-1-yl)pyridin-3-yl)pyrazolo[1,5-a]pyrimidine-3-carboxamide]",++ (Compounds with a Cisplatin sensitization value >0.02 μM but <0.2 μM are marked with “++.”)
5,"Nc1nn2cc(F)cnc2c1C(=O)Nc1cnccc1N1CCN2[C@@H](CCS2(=O)=O)C1 [I-N-247, (S)-2-amino-N-(4-(1,1-dioxidotetrahydro-2H-isothiazolo[2,3-a]pyrazin-5(3H)-yl)pyridin-3-yl)-6-fluoropyrazolo[1,5-a]pyrimidine-3-carboxamide]",+++ (Compounds with a Cisplatin sensitization value of <0.02 μM are marked with “+++.”)
6,"Nc1nn2cc(F)cnc2c1C(=O)Nc1cncc(F)c1N1CCN2C(=O)OC[C@@H]2C1 [I-N-248, (S)-2-amino-6-fluoro-N-(5-fluoro-4-(3-oxotetrahydro-1H-oxazolo[3,4-a]pyrazin-7(3H)-yl)pyridin-3-yl)pyrazolo[1,5-a]pyrimidine-3-carboxamide]",++ (Compounds with a Cisplatin sensitization value >0.02 μM but <0.2 μM are marked with “++.”)
7,Nc1nn2cc(F)cnc2c1C(=O)Nc1cnccc1N1CCN(C(=O)C2COC2)CC1 [I-N-249],+++ (Compounds with a Cisplatin sensitization value of <0.02 μM are marked with “+++.”)
8,"Nc1nn2cc(F)cnc2c1C(=O)Nc1cncc(F)c1N1CCS(=O)(=O)CC1 [I-N-250, 2-amino-N-(4-(1,1-dioxidothiomorpholino)-5-fluoropyridin-3-yl)-6-fluoropyrazolo[1,5-a]pyrimidine-3-carboxamide]",++ (Compounds with a Cisplatin sensitization value >0.02 μM but <0.2 μM are marked with “++.”)
9,"CC(=O)N1CC2(CCN(c3ccncc3NC(=O)c3c(N)nn4cc(F)cnc34)CC2)C1 [I-N-251, N-(4-(2-acetyl-2,7-diazaspiro[3.5]nonan-7-yl)pyridin-3-yl)-2-amino-6-fluoropyrazolo[1,5-a]pyrimidine-3-carboxamide]",+++ (Compounds with a Cisplatin sensitization value of <0.02 μM are marked with “+++.”)
10,"CC1(C)CN(c2ccncc2NC(=O)c2c(N)nn3cc(F)cnc23)CCS1(=O)=O [I-N-252, 2-amino-N-(4-(2,2-dimethyl-1,1-dioxidothiomorpholino)pyridin-3-yl)-6-fluoropyrazolo[1,5-a]pyrimidine-3-carboxamide]",+++ (Compounds with a Cisplatin sensitization value of <0.02 μM are marked with “+++.”)
11,"Nc1nn2cc(F)cnc2c1C(=O)Nc1cnccc1N1CCCC2(COC2)C1 [I-N-253, N-(4-(2-oxa-6-azaspiro[3.5]nonan-6-yl)pyridin-3-yl)-2-amino-6-fluoropyrazolo[1,5-a]pyrimidine-3-carboxamide]",+++ (Compounds with a Cisplatin sensitization value of <0.02 μM are marked with “+++.”)
12,"Nc1nn2cc(F)cnc2c1C(=O)Nc1cnccc1N1CCC2(CCNC2)CC1 [I-N-255, N-(4-(2,8-diazaspiro[4.5]decan-8-yl)pyridin-3-yl)-2-amino-6-fluoropyrazolo[1,5-a]pyrimidine-3-carboxamide]",++ (Compounds with a Cisplatin sensitization value >0.02 μM but <0.2 μM are marked with “++.”)
13,"Cc1nnc(N2CCN(c3ccncc3NC(=O)c3c(N)nn4cc(F)cnc34)CC2)o1 [I-N-256, 2-amino-6-fluoro-N-(4-(4-(5-methyl-1,3,4-oxadiazol-2-yl)piperazin-1-yl)pyridin-3-yl)pyrazolo[1,5-a]pyrimidine-3-carboxamide]",++ (Compounds with a Cisplatin sensitization value >0.02 μM but <0.2 μM are marked with “++.”)
14,"CC(=O)N1CCC2(CCN(c3ccncc3NC(=O)c3c(N)nn4cc(F)cnc34)CC2)C1 [I-N-257, N-(4-(2-acetyl-2,8-diazaspiro[4.5]decan-8-yl)pyridin-3-yl)-2-amino-6-fluoropyrazolo[1,5-a]pyrimidine-3-carboxamide]",+++ (Compounds with a Cisplatin sensitization value of <0.02 μM are marked with “+++.”)
15,"Cn1ccc2cncc(NC(=O)c3c(N)nn4cc(F)cnc34)c21 [I-N-259, 2-amino-6-fluoro-N-(1-methyl-1H-pyrrolo[3,2-c]pyridin-7-yl)pyrazolo[1,5-a]pyrimidine-3-carboxamide]",+ (Compounds with a Cisplatin sensitization value >0.2 μM but <5 μM are marked with “+.”)
16,"Cc1nonc1N1CCN(c2ccncc2NC(=O)c2c(N)nn3cc(F)cnc23)CC1 [I-N-260, 2-amino-6-fluoro-N-(4-(4-(4-methyl-1,2,5-oxadiazol-3-yl)piperazin-1-yl)pyridin-3-yl)pyrazolo[1,5-a]pyrimidine-3-carboxamide]",+++ (Compounds with a Cisplatin sensitization value of <0.02 μM are marked with “+++.”)
17,"COC(=O)N1CCN(c2c(F)cncc2NC(=O)c2c(N)nn3cc(F)cnc23)CC1 [I-N-261, methyl-4-(3-(2-amino-6-fluoropyrazolo[1,5-a]pyrimidine-3-carboxamido)-5-fluoropyridin-4-yl)piperazine-1-carboxylate]",+++ (Compounds with a Cisplatin sensitization value of <0.02 μM are marked with “+++.”)
18,"CC(=O)N1CCCC12CCN(c1ccncc1NC(=O)c1c(N)nn3cc(F)cnc13)CC2 [I-N-262, N-(4-(1-acetyl-1,8-diazaspiro[4.5]decan-8-yl)pyridin-3-yl)-2-amino-6-fluoropyrazolo[1,5-a]pyrimidine-3-carboxamide]",+++ (Compounds with a Cisplatin sensitization value of <0.02 μM are marked with “+++.”)
19,"Cc1nncn1-c1ccncc1NC(=O)c1c(N)nn2cc(F)cnc12 [I-N-263, 2-amino-6-fluoro-N-(4-(3-methyl-4H-1,2,4-triazol-4-yl)pyridin-3-yl)pyrazolo[1,5-a]pyrimidine-3-carboxamide]",+ (Compounds with a Cisplatin sensitization value >0.2 μM but <5 μM are marked with “+.”)
20,"Nc1nn2cc(F)cnc2c1C(=O)Nc1cnccc1N1CCCCCC1 [I-N-264, 2-amino-N-(4-(azepan-1-yl)pyridin-3-yl)-6-fluoropyrazolo[1,5-a]pyrimidine-3-carboxamide]",+ (Compounds with a Cisplatin sensitization value >0.2 μM but <5 μM are marked with “+.”)
21,"Cc1nnc(C2CCN(c3ccncc3NC(=O)c3c(N)nn4cc(F)cnc34)CC2)o1 [I-N-265, 2-amino-6-fluoro-N-(4-(4-(5-methyl-1,3,4-oxadiazol-2-yl)piperidin-1-yl)pyridin-3-yl)pyrazolo[1,5-a]pyrimidine-3-carboxamide]",++ (Compounds with a Cisplatin sensitization value >0.02 μM but <0.2 μM are marked with “++.”)
22,"COC1CCN(c2ccncc2NC(=O)c2c(N)nn3cc(F)cnc23)CC1 [I-N-266, 2-amino-6-fluoro-N-(4-(4-methoxypiperidin-1-yl)pyridin-3-yl)pyrazolo[1,5-a]pyrimidine-3-carboxamide]",+++ (Compounds with a Cisplatin sensitization value of <0.02 μM are marked with “+++.”)
23,"CN(C)CC1CCN(c2ccncc2NC(=O)c2c(N)nn3cc(F)cnc23)CC1 [I-N-267, 2-amino-N-(4-(4-((dimethylamino)methyl)piperidin-1-yl)pyridin-3-yl)-6-fluoropyrazolo[1,5-a]pyrimidine-3-carboxamide]",+++ (Compounds with a Cisplatin sensitization value of <0.02 μM are marked with “+++.”)
24,"Nc1nn2cc(F)cnc2c1C(=O)Nc1cnccc1N1CCC(c2nnco2)CC1 [I-N-268, N-(4-(4-(1,3,4-oxadiazol-2-yl)piperidin-1-yl)pyridin-3-yl)-2-amino-6-fluoropyrazolo[1,5-a]pyrimidine-3-carboxamide]",+++ (Compounds with a Cisplatin sensitization value of <0.02 μM are marked with “+++.”)
25,"Cc1ncn(-c2ccncc2NC(=O)c2c(N)nn3cc(F)cnc23)c1C [I-N-269, 2-amino-N-(4-(4,5-dimethyl-1H-imidazol-1-yl)pyridin-3-yl)-6-fluoropyrazolo[1,5-a]pyrimidine-3-carboxamide]",++ (Compounds with a Cisplatin sensitization value >0.02 μM but <0.2 μM are marked with “++.”)
26,"Nc1nn2cc(F)cnc2c1C(=O)Nc1cncc(F)c1N1CCCCC1 [I-N-270, 2-amino-6-fluoro-N-(5-fluoro-4-(piperidin-1-yl)pyridin-3-yl)pyrazolo[1,5-a]pyrimidine-3-carboxamide]",+++ (Compounds with a Cisplatin sensitization value of <0.02 μM are marked with “+++.”)
27,"Nc1nn2cc(F)cnc2c1C(=O)Nc1cnccc1N1CCC(S(=O)(=O)N2CCC2)CC1 [I-N-271, 2-amino-N-(4-(4-(azetidin-1-ylsulfonyl)piperidin-1-yl)pyridin-3-yl)-6-fluoropyrazolo[1,5-a]pyrimidine-3-carboxamide]",+++ (Compounds with a Cisplatin sensitization value of <0.02 μM are marked with “+++.”)
